Measured values published in BindingDB's records for doi:10.7270/Q2RX99Q9 (The Scripps Research Institute Molecular Screening Center, 2013).

Target: Albumin (Bos taurus, UniProt P02769)
Sequence (P02769 whole entry): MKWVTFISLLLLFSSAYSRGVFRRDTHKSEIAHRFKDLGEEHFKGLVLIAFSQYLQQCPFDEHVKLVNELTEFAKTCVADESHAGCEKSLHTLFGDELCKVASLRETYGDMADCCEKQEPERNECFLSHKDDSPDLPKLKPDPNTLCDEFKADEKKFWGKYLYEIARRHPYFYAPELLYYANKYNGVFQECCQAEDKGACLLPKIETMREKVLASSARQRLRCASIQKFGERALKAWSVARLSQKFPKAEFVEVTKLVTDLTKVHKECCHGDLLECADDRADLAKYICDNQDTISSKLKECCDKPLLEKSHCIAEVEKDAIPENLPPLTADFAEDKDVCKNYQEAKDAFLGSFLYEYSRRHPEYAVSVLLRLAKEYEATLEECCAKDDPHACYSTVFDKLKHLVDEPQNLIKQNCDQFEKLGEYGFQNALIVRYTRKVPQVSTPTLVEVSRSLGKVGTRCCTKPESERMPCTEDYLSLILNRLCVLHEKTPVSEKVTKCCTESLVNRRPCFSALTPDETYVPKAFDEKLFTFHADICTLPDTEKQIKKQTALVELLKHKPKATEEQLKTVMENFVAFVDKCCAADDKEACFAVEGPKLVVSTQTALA

Structure (SMILES) | IC50
O=C(CSc1nc2ccccc2s1)N/N=C/C1C=C([N+](=O)[O-])C=CC1=O (stereo not drawn) [MLS000777065] | > 94.1 µM
Nc1nnc(CC(=O)N/N=C/C2C=C([N+](=O)[O-])C=CC2=O)s1 (stereo not drawn) [2-(5-amino-1,3,4-thiadiazol-2-yl)-N'-[(E)-(3-nitro-6-oxo-1-cyclohexa-2,4-dienylidene)methyl]acetohydrazide] | > 94.1 µM
O=C(N/N=C/C1C=C([N+](=O)[O-])C=CC1=O)c1cccc(N2CCCC2=O)c1 (stereo not drawn) | > 94.1 µM
COc1ccc(CC(=O)N/N=C/C2C=C([N+](=O)[O-])C=C(Br)C2=O)cc1 (stereo not drawn) | > 94.1 µM
COC1=CC([N+](=O)[O-])=CC(/C=N/NC(=O)c2cc(C)nc3ccccc23)C1=O (stereo not drawn) | > 94.1 µM
O=C1C=CC([N+](=O)[O-])=CC1C=NNC(=S)Nc1ccc(Cl)cc1Cl (stereo not drawn) [MLS000777079] | > 94.1 µM
CCOC(=O)C1C(CC)=Nc2ccccc2N=C1NC(=O)Nc1ccc(Cl)c(Cl)c1 (stereo not drawn) | > 94.1 µM
O=[N+]([O-])c1cc(Br)c(O)c(CN=Nc2nnnn2-c2cccc3ccccc23)c1 [(6E)-2-bromo-6-[[2-(1-naphthalen-1-yltetrazol-5-yl)hydrazinyl]methylidene]-4-nitrocyclohexa-2,4-dien-1-one] | > 94.1 µM
O=C(NN=CC1=CC(=O)C(=O)CC1)NN=CC1=CC(=O)C(=O)CC1 [1,3-bis[[(Z)-(3-hydroxy-4-oxocyclohexa-2,5-dien-1-ylidene)methyl]amino]urea] | > 94.1 µM
O=C(N/N=C/C1C=C([N+](=O)[O-])C=CC1=O)/C(=C\c1cccs1)NC(=O)c1ccccc1 (stereo not drawn) [MLS000332530] | > 94.1 µM
Cc1cc(=O)oc2cc(OCC(=O)N/N=C/C3C=C([N+](=O)[O-])C=CC3=O)ccc12 (stereo not drawn) [MLS000588734] | > 94.1 µM
Oc1c(Br)cc(CC=Nc2cc(O)c3cccnc3c2O)cc1Br [7-[2-(3,5-dibromo-4-hydroxyphenyl)ethylamino]quinoline-5,8-dione] | > 94.2 µM
Cc1cc(C(=O)N/N=C/C2C=C(Br)C=C([N+](=O)[O-])C2=O)c2ccccc2n1 (stereo not drawn) [MLS000585468] | > 94.1 µM
O=C(N/N=C/C1C=CC=C([N+](=O)[O-])C1=O)c1cccs1 (stereo not drawn) | > 94.1 µM
COC1=CC(=O)C(/C=N/NC(=O)c2ccncc2)C(OC)=C1[N+](=O)[O-] (stereo not drawn) [MLS000673335] | > 94.1 µM
O=C(CNC(=O)c1ccccc1Br)N/N=C/C1C=C([N+](=O)[O-])C=C(Br)C1=O (stereo not drawn) [2-bromanyl-N-[2-[2-[(E)-(5-bromanyl-3-nitro-6-oxidanylidene-cyclohexa-2,4-dien-1-ylidene)methyl]hydrazinyl]-2-oxidanylidene-ethyl]benzamide] | > 94.1 µM
CN1C(=O)C(C=NNC(=O)c2cc3ccccc3cc2O)c2ccccc21 (stereo not drawn) [MLS000912237] | > 94.1 µM
O=C1C=CC([N+](=O)[O-])=CC1/C=N/n1c(COc2ccccc2)nc2ccccc2c1=O (stereo not drawn) [3-[[(E)-(3-nitro-6-oxocyclohexa-2,4-dien-1-ylidene)methyl]amino]-2-(phenoxymethyl)quinazolin-4-one] | > 94.1 µM
CC1=CC(/C=N/n2c(COc3ccccc3C)nc3ccccc3c2=O)C(=O)C([N+](=O)[O-])=C1 (stereo not drawn) | > 94.1 µM
CCc1n[nH]c(=S)n1N=CC1C=C(OC)C=C([N+](=O)[O-])C1=O (stereo not drawn) [(6E)-6-[[(3-ethyl-5-sulfanylidene-1H-1,2,4-triazol-4-yl)amino]methylidene]-4-methoxy-2-nitro-1-cyclohexa-2,4-dienone] | > 94.1 µM
Cc1cc2cc(CNC(=O)c3ccc(C)c([N+](=O)[O-])c3)ccc2[nH]1 [MLS000724615] | > 94.1 µM
CC1=CC([N+](=O)[O-])=CC(/C=N/n2c(C)nc3ccccc3c2=O)C1=O (stereo not drawn) [MLS000778735] | > 94 µM
O=C1C([N+](=O)[O-])=CC(Cl)=CC1C=NNC(=S)Nc1ccc(S(=O)(=O)N2CCOCC2)cc1 (stereo not drawn) [1-[[(E)-(3-chloro-5-nitro-6-oxo-1-cyclohexa-2,4-dienylidene)methyl]amino]-3-[4-(4-morpholinylsulfonyl)phenyl]thiourea] | > 94.1 µM
C=CCN1C(=O)/C(=N\NC(=O)CNC(=O)/C=C/c2ccco2)c2ccccc21 [(E)-N-[1-Allyl-2-oxo-1,2-dihydro-indol-(3Z)-ylidene-hydrazinocarbonylmethyl]-3-furan-2-yl-acrylamide] | > 94.1 µM
Oc1ccc(CN=Nc2ncnc3c2ncn3Cc2ccccc2)cc1O [(4Z)-2-oxidanyl-4-[[2-[9-(phenylmethyl)purin-6-yl]hydrazinyl]methylidene]cyclohexa-2,5-dien-1-one] | > 94.1 µM
O=C1CC(=O)c2c(O)cc(O)c(O)c2C1=O [4,5,7,8-tetrahydroxy-1,2-naphthoquinone] | > 94.1 µM
CC1=CC(/C=N/n2c(CO[N-][C+](C)c3ccccc3)nc3ccccc3c2=O)C(=O)C([N+](=O)[O-])=C1 (stereo not drawn) | > 94.1 µM

Second part, the compound after the results:

IC50 | Structure (SMILES)
> 94.2 µM | CC1=CC([N+](=O)[O-])=CC(/C=N/NC(=O)C2COc3ccccc3O2)C1=O (stereo not drawn) [N'-[(E)-(5-methyl-3-nitro-6-oxocyclohexa-2,4-dien-1-ylidene)methyl]-2,3-dihydro-1,4-benzodioxine-3-carbohydrazide]
> 94.1 µM | O=C1C([N+](=O)[O-])=CC=CC1/C=N/n1cnc2scc(-c3ccc(Cl)cc3)c2c1=O (stereo not drawn) [SMR000314525]
> 94.1 µM | COc1ccc(C(=O)CC=NNC(=O)c2ccc(Cl)cc2)cc1 [SMR000499516]
> 94.1 µM | Cc1ccc(C(=O)Nc2nc(C(C)(C)C)cs2)s1 [N-(4-tert-butyl-2-thiazolyl)-5-methyl-2-thiophenecarboxamide]
> 94.1 µM | CCOC(=O)c1c(C)[nH]c(C(=O)N/N=C/C2C=C([N+](=O)[O-])C=CC2=O)c1C (stereo not drawn) [ethyl 2,4-dimethyl-5-[[[(E)-(3-nitro-6-oxocyclohexa-2,4-dien-1-ylidene)methyl]amino]carbamoyl]-1H-pyrrole-3-carboxylate]
> 94.1 µM | O=C(N/N=C/C1C=C([N+](=O)[O-])C=C([N+](=O)[O-])C1=O)/C(=C\c1cccs1)NC(=O)c1ccccc1 (stereo not drawn) [SMR000207704]
> 94.1 µM | Cc1c(NC(=S)NN=CC2C=C([N+](=O)[O-])C=CC2=O)c(=O)n(-c2ccccc2)n1C (stereo not drawn) [SMR000415003]
> 94.1 µM | Cc1cc(C(=O)N/N=C/C2C=C(Cl)C=C([N+](=O)[O-])C2=O)c2ccccc2n1 (stereo not drawn) [N'-[(E)-(3-chloranyl-5-nitro-6-oxidanylidene-cyclohexa-2,4-dien-1-ylidene)methyl]-2-methyl-quinoline-4-carbohydrazide]
> 94.1 µM | O=C(NC(C(=O)NN=CC1C=C([N+](=O)[O-])C=CC1=O)c1n[nH]c(=O)c2ccccc12)c1ccccc1 (stereo not drawn) [N-[2-[2-[(E)-(3-nitro-6-oxidanylidene-cyclohexa-2,4-dien-1-ylidene)methyl]hydrazinyl]-2-oxidanylidene-1-(4-oxidanylidene-3H-phthalazin-1-yl)ethyl]benzamide]
> 94.1 µM | O=C(O)c1ccccc1NS(=O)(=O)c1ccc(N=NCc2ccc(O)c(O)c2)c([N+](=O)[O-])c1 [SMR001238114]
> 94.1 µM | Cc1ccccc1C(=O)Nc1cccc(C(=O)N/N=C/C2C=C(Cl)C=C([N+](=O)[O-])C2=O)c1 (stereo not drawn) [N-(3-{[(2E)-2-(5-chloro-2-hydroxy-3-nitrobenzylidene)hydrazino]carbonyl}phenyl)-2-methylbenzamide]
> 94.1 µM | CC(NNC(=O)c1ccc(-c2ccccc2)cc1)=C1C(=O)c2ccccc2C1=O [N-[(E)-1-(1,3-dioxoinden-2-yl)ethylideneamino]-4-phenylbenzamide]
> 94.2 µM | O=Nc1[nH]c(=O)c(CC(=O)c2ccccc2)nc1NO [SMR000539633]
> 94.1 µM | O=C(N/N=C/C1C=C(Cl)C=C([N+](=O)[O-])C1=O)c1cccc(S(=O)(=O)N2CCOCC2)c1 (stereo not drawn) [MLS002155639]
> 94.1 µM | Cc1cc(C(=O)NN=CC2C=C(Cl)C=C([N+](=O)[O-])C2=O)[nH]n1 (stereo not drawn) [SMR000414694]
> 94.1 µM | O=C(N/N=C/C1C=C(Cl)C=C([N+](=O)[O-])C1=O)c1ccc2c(c1)OCO2 (stereo not drawn) [N'-[(E)-(3-chloranyl-5-nitro-6-oxidanylidene-cyclohexa-2,4-dien-1-ylidene)methyl]-1,3-benzodioxole-5-carbohydrazide]
